In patent publication US11028066B2, “Inhibitors of lysine specific demethylase-1” (CELGENE QUANTICEL RESEARCH, INC., priority 2014, dated 2021):

Tests used:
[1] = molecular target: full-length human LSD1 (Homo sapiens (Human), UniProt O60341); assay: In vitro enzyme inhibition assay LSD-1 (TR-FRET); assay type: biochemical; details: H3K4me1-biotin peptide
Experimental: This assay determines the ability of a test compound to inhibit LSD1 demethylase activity.
The enzymatic assay of LSD1 activity is based on Time Resolved-Fluorescence Resonance Energy Transfer (TR-FRET) detection.
Plates were read by EnVision Multilabel Reader in TR-FRET mode (excitation at 320 nm, emission at 615 nm and 665 nm) after 1 hour incubation at room temperature.
The ability of the compounds disclosed herein to inhibit LSD1 activity was quantified and the respective IC50 value was determined.

[2] = test system: THP-1 (AML) cells; assay: LSD1 CD11b cellular assay (flow cytometry); assay type: cell-based; details: Homo sapiens, THP-1, 96 h; CD11b expressing cells, 4 days incubation
Experimental: To analyze LSD1 inhibitor efficacy in cells, a CD11b flow cytometry assay was performed. LSD1 inhibition induces CD11b expression in THP-1 (AML) cells which can be measured by flow cytometry. […] LSD1 test compounds were serially diluted in DMSO. The dilutions were added to each well accordingly to a final concentration of 0.2% DMSO. The cells were incubated at 37 degrees Celsius in 5% CO2 for 4 days. 250 μL of each well was transferred to a well in a 96 well round bottom plate. The plate was centrifuged at 1200 rpm at 4 degrees Celsius in a Beckman Coulter Alegra 6KR centrifuge for 5 minutes. The media was removed leaving the cells at the bottom of the wells. The cells were washed in 100 μL cold HBSS (Hank's Balanced Salt Solution) plus 2% BSA (Bovine Serum Albumin) solution and centrifuged at 1200 rpm at 4 degrees Celsius for 5 minutes. The wash was removed. […] The cells were centrifuged and washed two times in 100 μL HBSS plus 2% BSA. After the final spin the cells were resuspended in 100 μL HBSS plus 2% BSA containing 1 ug/mL DAPI (4′,6-diamidino-2-phenylindole). The cells were then analyzed by flow cytometry in a BD FACSAria machine. Cells were analyzed for CD11b expression. The percent of CD11b expressing cells for each inhibitor concentration was used to determine an IC50 curve for each compound analyzed.

IC50 [1] | IC50 [2] | Compound
< 100 nM | < 100 nM | COCCCn1c(-c2ccc(C)cc2)c(-c2ccc(C#N)c(F)c2)nc(N2CCC(N)CC2)c1=O [Example 45, 4-[6-(4-aminopiperidyl)-4-(3-methoxypropyl)-3-(4-methylphenyl)-5-oxo(4-hydropyrazin-2-yl)]-2-fluorobenzenecarbonitrile]
< 100 nM | < 100 nM | CCc1ccc(-c2c(-c3ccc(C#N)c(F)c3)nc(NC[C@H]3CCNC3)c(=O)n2C)cc1 [Example 57, 4-{3-(4-ethyl-phenyl)-4-methyl-5-oxo-6-[((3S)-pyrrolidin-3-ylmethyl)-amino]-4,5-dihydro-pyrazin-2-yl}-2-fluoro-benzonitrile]
< 100 nM | 100 to 1000 nM | N#Cc1ccc(-c2cn(Cc3ccc(F)cc3)c(=O)c(N3CCC(N)CC3)n2)cc1 [Example 9, 4-[6-(4-aminopiperidin-1-yl)-4-[(4-fluorophenyl)methyl]-5-oxo-4,5-dihydropyrazin-2-yl]benzonitrile]
< 100 nM | 100 to 1000 nM | COc1ccc(-c2c(-c3ccc(C#N)nc3)cc(NC[C@H]3CCNC3)c(=O)n2C)cc1 [Example 69, (S)-5-(2-(4-methoxyphenyl)-1-methyl-6-oxo-5-(pyrrolidin-3-ylmethylamino)-1,6-dihydropyridin-3-yl)picolinonitrile]
< 100 nM | < 100 nM | CCn1c(-c2ccc(C)cc2)c(-c2ccc(C#N)cc2)nc(N2CCC(N)CC2)c1=O [Example 26, 4-[6-(4-aminopiperidin-1-yl)-4-ethyl-3-(4-methylphenyl)-5-oxo-4,5-dihydropyrazin-2-yl]benzonitrile]
< 100 nM | < 100 nM | COc1ccc(-c2c(-c3ccc(C#N)cc3)cc(N3CCC(N)CC3)c(=O)n2CC2CC2)cc1 [Example 81, 4-[5-(4-aminopiperidin-1-yl)-1-(cyclopropylmethyl)-2-(4-methoxyphenyl)-6-oxopyridin-3-yl]benzonitrile]
< 100 nM | < 100 nM | Cc1ccc(-c2c(-c3ccc(C#N)cc3)nc(N3CCC4CNCC4CC3)c(=O)n2C)cc1 (stereo not drawn) [Example 25, 4-(6-{decahydropyrrolo[3,4-d]azepin-6-yl}-4-methyl-3-(4-methylphenyl)-5-oxo-4,5-dihydropyrazin-2-yl)benzonitrile]
< 100 nM | 100 to 1000 nM | CCc1ccc(-c2c(-c3ccc(C#N)cc3)nc(NC[C@@H]3CCNC3)c(=O)n2C)cc1 [Example 29, 4-[3-(4-ethylphenyl)-4-methyl-5-oxo-6-{[(3R)-pyrrolidin-3-ylmethyl]amino}-4,5-dihydropyrazin-2-yl]benzonitrile]
< 100 nM | < 100 nM | COc1ccc(-c2c(-c3ccc(C#N)cc3)nc(N3CCC(N)CC3)c(=O)n2C)cc1 [Example 30, 4-[6-(4-aminopiperidin-1-yl)-3-(4-methoxyphenyl)-4-methyl-5-oxo-4,5-dihydropyrazin-2-yl]benzonitrile]
< 100 nM | < 100 nM | COCCCn1c(-c2ccc(C)cc2)c(-c2ccc(C#N)cc2)nc(N2CCC(N)CC2)c1=O [Example 39, 4-[6-(4-amino-piperidin-1-yl)-4-(3-methoxy-propyl)-5-oxo-3-p-tolyl-4,5-dihydro-pyrazin-2-yl]-benzonitrile]
< 100 nM | 100 to 1000 nM | Cn1c(-c2ccc(C3CC3)cc2)c(-c2ccc(C#N)cc2)nc(NC[C@@H]2CCNC2)c1=O [Example 35, 4-[3-(4-cyclopropylphenyl)-4-methyl-5-oxo-6-{[(3R)-pyrrolidin-3-ylmethyl]amino}-4,5-dihydropyrazin-2-yl]benzonitrile]
< 100 nM | < 100 nM | CNC1CCN(c2nc(-c3ccc(C#N)c(F)c3)c(-c3ccc(C)cc3)n(CCO)c2=O)CC1 [Example 65, 2-Fluoro-4-[4-(2-hydroxy-ethyl)-6-(4-methylamino-piperidin-1-yl)-5-oxo-3-p-tolyl-4,5-dihydro-pyrazin-2-yl]-benzonitrile]
< 100 nM | < 100 nM | Cc1ccc(-c2c(-c3ccc(C#N)cc3)nc(N3CCC(N)CC3)c(=O)n2C)cn1 [Example 49, 4-[6-(4-amino-piperidin-1-yl)-4-methyl-3-(6-methyl-pyridin-3-yl)-5-oxo-4,5-dihydro-pyrazin-2-yl]-benzonitrile]
< 100 nM | < 100 nM | COc1ccc(-c2c(-c3ccc(C#N)nc3)nc(NC[C@H]3CCNC3)c(=O)n2C)cc1 [Example 54, 5-{3-(4-methoxy-phenyl)-4-methyl-5-oxo-6-[((3S)-pyrrolidin-3-ylmethyl)-amino]-4,5-dihydro-pyrazin-2-yl}-pyridine-2-carbonitrile]
< 100 nM | < 100 nM | CCn1c(-c2ccc(OC)cc2)c(-c2ccc(C#N)cc2)cc(N2CCC(N)CC2)c1=O [Example 82, 4-[5-(4-aminopiperidin-1-yl)-1-ethyl-2-(4-methoxyphenyl)-6-oxopyridin-3-yl]benzonitrile]
< 100 nM | < 100 nM | COc1ccc(-c2c(-c3ccc(C#N)c(F)c3)cc(N3CCC(N)CC3)c(=O)n2CC2CC2)cc1 [Example 85, 4-[5-(4-aminopiperidin-1-yl)-1-(cyclopropylmethyl)-2-(4-methoxyphenyl)-6-oxopyridin-3-yl]-2-fluorobenzonitrile]
< 100 nM | 100 to 1000 nM | COc1ccc(-c2c(-c3ccc(C#N)cc3)nc(NC[C@@H]3CCNC3)c(=O)n2C)cc1 [Example 32, 4-[3-(4-methoxyphenyl)-4-methyl-5-oxo-6-{[(3R)-pyrrolidin-3-ylmethyl]amino}-4,5-dihydropyrazin-2-yl]benzonitrile]
< 100 nM | < 100 nM | CNC1CCN(c2cc(-c3ccc(C#N)c(F)c3)c(-c3ccc(OC)c(F)c3)n(C)c2=O)CC1 [Example 86, 2-fluoro-4-[2-(3-fluoro-4-methoxyphenyl)-1-methyl-5-[4-(methylamino)piperidin-1-yl]-6-oxopyridin-3-yl]benzonitrile]
< 100 nM | < 100 nM | N#Cc1ccc(-c2nc(N3CCC(N)CC3)c(=O)n(CCO)c2-c2ccc(C3CC3)cc2)cc1 [Example 38, 4-[6-(4-amino-piperidin-1-yl)-3-(4-cyclopropyl-phenyl)-4-(2-hydroxy-ethyl)-5-oxo-4,5-dihydro-pyrazin-2-yl]-benzonitrile]
< 100 nM | 1000 to 10000 nM | C[C@@H](c1ccccc1)n1cc(-c2ccc(C#N)cc2)nc(N2CCC(N)CC2)c1=O [Example 13, 4-[6-(4-aminopiperidin-1-yl)-5-oxo-4-[(1S)-1-phenylethyl]-4,5-dihydropyrazin-2-yl]benzonitrile]
< 100 nM | 100 to 1000 nM | Cn1c(-c2ccc(C3CC3)cc2)c(-c2ccc(C#N)cc2)nc(NC[C@H]2CCNC2)c1=O [Example 34, 4-[3-(4-cyclopropylphenyl)-4-methyl-5-oxo-6-{[(3S)-pyrrolidin-3-ylmethyl]amino}-4,5-dihydropyrazin-2-yl]benzonitrile]
< 100 nM | < 100 nM | CNC1CCN(c2cc(-c3ccc(C#N)c(F)c3)c(-c3ccc(OC)cc3)n(C)c2=O)CC1 [Example 79, 2-fluoro-4-{2-(4-methoxyphenyl)-1-methyl-5-[4-(methylamino)piperidyl]-6-oxo(3-hydropyridyl)}benzenecarbonitrile]
< 100 nM | < 100 nM | CNC1CCN(c2nc(-c3ccc(C#N)c(F)c3)c(-c3ccc(C)cc3)n(CCCO)c2=O)CC1 [Example 64, 2-Fluoro-4-[4-(3-hydroxy-propyl)-6-(4-methylamino-piperidin-1-yl)-5-oxo-3-p-tolyl-4,5-dihydro-pyrazin-2-yl]-benzonitrile]
< 100 nM | 100 to 1000 nM | COc1ccc(Cn2cc(-c3ccc(C#N)cc3)nc(N3CCC(N)CC3)c2=O)cc1 [Example 11, 4-[6-(4-aminopiperidin-1-yl)-4-[(4-methoxyphenyl)methyl]-5-oxo-4,5-dihydropyrazin-2-yl]benzonitrile]
< 100 nM | < 100 nM | COCCn1c(-c2ccc(C)cc2)c(-c2ccc(C#N)c(F)c2)nc(N2CCC(N)CC2)c1=O [Example 41, 4-[6-(4-amino-piperidin-1-yl)-4-(2-methoxy-ethyl)-5-oxo-3-p-tolyl-4,5-dihydro-pyrazin-2-yl]-2-fluoro-benzonitrile]
< 100 nM | < 100 nM | Cn1c(-c2ccc(OC(F)(F)F)cc2)c(-c2ccc(C#N)c(F)c2)nc(NC[C@H]2CCNC2)c1=O [Example 63, 2-fluoro-4-[4-methyl-5-oxo-6-[((3S)-pyrrolidin-3-ylmethyl)-amino]-3-(4-trifluoromethoxy-phenyl)-4,5-dihydro-pyrazin-2-yl]-benzonitrile]
< 100 nM | 100 to 1000 nM | Cn1c(-c2ccc(C3CC3)cc2)c(-c2ccc(C#N)nc2)nc(NC[C@H]2CCNC2)c1=O [Example 58, 5-{3-(4-cyclopropyl-phenyl)-4-methyl-5-oxo-6-[((3S)-pyrrolidin-3-ylmethyl)-amino]-4,5-dihydro-pyrazin-2-yl}-pyridine-2-carbonitrile]
